Like-named read-outs stand apart in the source and are kept apart here.
Experiments:
CDK4/CyclinD1 = CDK4/CyclinD1 (Homo sapiens (Human), UniProt P11802); experiment: CDK4/CyclinD1 kinase assay (Nanosyn, Caliper microfluidic); assay type: biochemical; conditions: Table 2; read-out: CDK4/CycD1 IC50
Experimental: (§1) Selected compounds disclosed herein were tested in CDK4/cyclinD1, CDK6/CycD3 CDK2/CycA and CDK2/cyclinE kinase assays by Nanosyn (Santa Clara, Calif.) to determine their inhibitory effect on these CDKs. The assays were performed using microfluidic kinase detection technology (Caliper Assay Platform). The compounds were tested in 12-point dose-response format in singlicate at Km for ATP. Phosphoacceptor substrate peptide concentration used was 1 μM for all assays and Staurosporine was used as the reference compound for all assays. Specifics of each assay are as described below:
CDK4/CyclinD1: Enzyme concentration: 1 nM; ATP concentration: 200 μM; Incubation time: 10 hr.

CDK2/CyclinE = CDK2/CyclinE (Homo sapiens (Human), UniProt P24941); experiment: CDK2/CyclinE kinase assay (Nanosyn, Caliper microfluidic); assay type: biochemical; conditions: for IC50: read-out: CDK2/CycE IC50
Experimental: as §1, with “assays.” for “assays. Specifics of each assay are as described below:”

CDK2/CyclinA = CDK2/CyclinA (Homo sapiens (Human), UniProt P24941); experiment: CDK2/CyclinA kinase assay (Nanosyn, Caliper microfluidic); assay type: biochemical; conditions: for IC50: read-out: CDK2/CycA IC50
Experimental: as §1
CDK2/CyclinA: Enzyme concentration: 0.2 nM; ATP concentration: 50 μM; Incubation time: 3 hr.

[1] = system: HS68 cells (human skin fibroblast cell line (Rb-positive)); experiment: G1 arrest (cellular G1 and S-phase) assay; assay type: cell-based
Experimental: For determination of cellular fractions in various stages of the cell cycle following various treatments, HS68 cells (human skin fibroblast cell line (Rb-positive)) were stained with propidium iodide staining solution and run on Dako Cyan Flow Cytometer. The fraction of cells in G0-G1 DNA cell cycle versus the fraction in S-phase DNA cell cycle was determined using FlowJo 7.2 0.2 analysis.
The compounds listed in Table 1 were tested for their ability to arrest HS68 cells at the G1 phase of the cell cycle.

[2] = Mouse pharmacokinetics (oral gavage / intravenous); assay type: in vivo, mice; conditions: for AUC(0-inf) / clearance / Vd: iv, 10 mg/kg i.v.; for Vd: read-out: Vss
HSPCs (bone marrow) = experiment: HSPC proliferation in bone marrow by EdU incorporation after oral gavage; assay type: in vivo, mice
Experimental: Mice were then sacrificed at the indicated times (0, 12, 24, 36, or 48 hours following compound administration), and bone marrow was harvested (n=3 mice per time point), as previously described (Johnson et al. J. Clin. Invest. (2010) 120(7), 2528-2536). Four hours before the bone marrow was harvested, mice were treated with 100 μg of EdU by intraperitoneal injection (Invitrogen). Bone marrow mononuclear cells were harvested and immunophenotyped using previously described methods and percent EdU positive cells were then determined (Johnson et al. J. Clin. Invest. (2010) 120(7), 2528-2536). In brief, HSPCs were identified by expression of lineage markers (Lin-), Sca1 (S+), and c-Kit (K+).
Four hours before animals were sacrificed and the bone marrow was harvested, mice were treated with 100 μg of EdU by intraperitoneal injection. Three mice per group were sacrificed at 12 hours and the remaining three animals per group were sacrificed at 24 hours. Results are shown in FIG. 6A as the ratio of EdU positive cells for treated animals at 12 or 24 hour time points compared to control.
Further experiments were completed with Compound T examining dose response and longer periods of compound treatment. […] […].
Both compounds were administered at 150 mg/kg by oral gavage. One hour prior to harvesting bone marrow, EdU was IP injected to label cycling cells. Bone marrow was harvested at 12, 24, 36, and 48 hours after compound treatment and the percentage of EdU positive HSPC cells was determined at each time point.

[3] = mouse, plasma, po, 30 mg/kg, mouse, 30 mg/kg oral gavage, read-out: t1/2 p.o. (converted)
[4] = plasma, mouse, 30 mg/kg oral gavage

Chain of CDK4/CyclinD1 (P11802 whole entry, species assumed): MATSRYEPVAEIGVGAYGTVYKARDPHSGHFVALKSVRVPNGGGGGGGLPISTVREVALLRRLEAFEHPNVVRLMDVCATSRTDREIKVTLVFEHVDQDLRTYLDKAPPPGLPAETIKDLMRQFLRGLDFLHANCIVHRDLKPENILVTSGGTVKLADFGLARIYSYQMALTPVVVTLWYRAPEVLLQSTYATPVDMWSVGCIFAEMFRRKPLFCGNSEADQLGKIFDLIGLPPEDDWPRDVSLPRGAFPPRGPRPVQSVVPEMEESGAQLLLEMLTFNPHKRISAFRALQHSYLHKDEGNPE
Chain of CDK4/CyclinD1 (P24385 whole entry partner, species assumed): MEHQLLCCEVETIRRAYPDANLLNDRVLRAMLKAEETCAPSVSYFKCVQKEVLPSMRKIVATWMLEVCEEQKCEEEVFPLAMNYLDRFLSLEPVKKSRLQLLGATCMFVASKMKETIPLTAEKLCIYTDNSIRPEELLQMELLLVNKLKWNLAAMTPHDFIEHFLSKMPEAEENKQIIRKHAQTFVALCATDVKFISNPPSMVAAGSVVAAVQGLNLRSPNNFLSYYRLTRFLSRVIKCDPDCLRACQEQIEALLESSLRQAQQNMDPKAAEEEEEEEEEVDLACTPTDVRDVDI

IC50 (CDK4/CyclinD1) [nM] | Fold Selectivity (CDK2/CycE/CDK4) (CDK2/CyclinE; Table 2) | IC50 (CDK2/CyclinE; Table 2) [nM] | Fold Selectivity (CDK2/CycA/CDK4) (CDK2/CyclinA; Table 2) | IC50 (CDK2/CyclinA; Table 2) [nM] | F ([2]; mouse) [%] | half-life [2, 3] [min] | AUC(0-inf) ([2]; plasma, mouse) [µM·h] | clearance ([2]; plasma, mouse) [mL/min/kg] | Vd ([2]; plasma, mouse) [L/kg] | AUC [2, 4] [µM·h] | Cmax [2, 4] [nM] | Tmax [2, 4] [min] | SMILES | EC50 ([1]; HS68 cells) [nM] | EC50 ([1]; Homo sapiens, Hs68, HS68 cells) [nM] | further results
2.3 | 2591 | 6010 | 918 | 2130 |  |  |  |  |  |  |  |  | CCC(C)CN1CCN(c2ccc(Nc3ncc4cc5n(c4n3)C3(CCCC3)CNC5=O)nc2)CC1 (centres unmarked) [AAA] | 275 |  | 
4.7 | 966 | 4540 | 291 | 1370 |  |  |  |  |  |  |  |  | CCC(C)CN1CCN(c2ccc(Nc3ncc4cc5n(c4n3)C3(CCCC3)CNC5=O)nc2)CC1 (centres unmarked) [FFF] | 650 |  | 

Further lines, the molecule ahead of its results:

SMILES | IC50 (CDK4/CyclinD1) [nM] | Fold Selectivity (CDK2/CycE/CDK4) (CDK2/CyclinE; Table 2) | IC50 (CDK2/CyclinE; Table 2) [nM] | Fold Selectivity (CDK2/CycA/CDK4) (CDK2/CyclinA; Table 2) | IC50 (CDK2/CyclinA; Table 2) [nM] | F ([2]; mouse) [%] | half-life [2, 3] [min] | AUC(0-inf) ([2]; plasma, mouse) [µM·h] | clearance ([2]; plasma, mouse) [mL/min/kg] | Vd ([2]; plasma, mouse) [L/kg] | AUC [2, 4] [µM·h] | Cmax [2, 4] [nM] | Tmax [2, 4] [min] | EC50 ([1]; HS68 cells) [nM] | EC50 ([1]; Homo sapiens, Hs68, HS68 cells) [nM] | further results
O=C1NCC2(CCCCC2)n2c1cc1cnc(Nc3ccc(N4CCNCC4)cn3)nc12 [Compound Q] |  |  |  |  |  | 2 | 48 | 0.95 | 44 | 5.2 | 0.15 | 160 | 30 |  |  | oral bioavailability (in words) ([2]; mice): low; EdU incorporation into HSPCs at 12 and 24 hours compared to control (HSPCs (bone marrow); 150 mg/kg oral gavage): some reduction at 12 hours and started to return to baseline at 24 hours; G1-arrest of bone marrow stem cells (HSPC) (HSPCs (bone marrow); oral gavage, mice): dose dependent, transient, and reversible G1-arrest
O=C1NCC2(CCCCC2)n2c1cc1cnc(Nc3ccc(N4CCC(N5CCOCC5)CC4)cn3)nc12 [Compound U, 2′-((5-(4-morpholinopiperidin-1-yl)pyridin-2-yl)amino)-7′,8′-dihydro-6′H-spiro[cyclohexane-1,9′-pyrazino[1′,2′:1,5]pyrrolo[2,3-d]pyrimidin]-6′-one] |  |  | 1460 |  | 857 | 67 | 180 | 0.76 | 52 | 3.4 | 3.3 | 4200 | 30 |  |  | IC50 (CDK2/CyclinE; Table 3): 1460 nM; IC50 (CDK2/CyclinA; Table 3): 857 nM; half-life ([2]; mouse, plasma, po, 30 mg/kg, mouse, read-out: plasma half-life following oral administration): 180 to 300 min; bioavailability ([2]; mouse, plasma, po, 30 mg/kg, read-out: oral bioavailability (F (%))): 52 to 80%
CC1CN(c2ccc(Nc3ncc4cc5n(c4n3)C3(CCCC3)CNC5=O)nc2)CC(C)N1CCC(C)(C)C (centres unmarked) [PPP] | 0.8 | 21263 | 16500 | 3402 | 2640 |  |  |  |  |  |  |  |  |  | 275 | 
CCC(C)[C@@H]1CNC(=O)c2cc3cnc(Nc4ccc(N5CCN(C)CC5)cn4)nc3n21 (some centres unmarked) [VVV] | 7.4 | 589 | 4380 |  |  |  |  |  |  |  |  |  |  |  | 300 | 
